Read-outs that look alike come from different tables or passages of the source.
Biological target: SARS-CoV-2 3CL protease (Severe acute respiratory syndrome coronavirus 2, UniProt P0DTD1)
Assay: Inhibitory activity test against SARS-CoV-2 3CL proteases
Type: biochemical
[1] = read-out: IC50 (50% SARS-CoV-2 3CL protease inhibitory concentration)
[2] = IC50 (50% SARS-CoV-2 3CL protease inhibitory concentration)

SMILES | IC50 [1] | IC50 [2]
COc1cc(-c2cc3c(cc2Cl)NC(=O)C3(C)C)cc2c1c(=O)n(Cc1ncn(C)n1)c(=O)n2Cc1cc(F)c(F)c(F)c1 [Compound I-0275] | 0.019 µM | 
COc1cc(N2C[C@H]3C[C@@H]2CN3)cc2c1c(=O)n(Cc1ncn(C)n1)c(=O)n2Cc1cc(F)c(F)c(F)c1 [Compound I-0395] | 0.0022 µM | 
Cn1cnc(Cn2c(=O)c3c(F)c(I)c(-c4cc(C#N)ccc4Cl)cc3n(Cc3cc(F)c(F)c(Cl)c3)c2=O)n1 [Compound I-0542] | < 0.1 µM | 
Cn1cnc(Cn2c(=O)c3c(=O)n(C)c(-c4cc(C#N)ccc4Cl)cc3n(Cc3cc(F)c(F)c(F)c3)c2=O)n1 [Compound I-0169] | 0.0027 µM | 
COc1cc(-c2cc(CC(=O)O)ccc2Cl)cc2c1c(=O)n(-c1cncc(Cl)c1)c(=O)n2Cc1cc(Cl)ccc1C [Compound I-0198] | < 0.1 µM | 
O=c1[nH]cccc1Cn1c(=O)c2ccc(N3[C@@H]4CNC[C@H]3COC4)cc2n(Cc2cc(F)c(F)c(F)c2)c1=O [Compound I-0381] |  | < 0.1 µM
COc1nc2cc(-c3cc(OC)c4c(=O)n(Cc5ncn(C)n5)c(=O)n(Cc5cc(F)c(F)c(F)c5)c4c3)c(Cl)cc2[nH]1 [Compound I-0501] | 0.0064 µM | 
COc1cc(-c2cc3c(cc2Cl)NC(=O)CC3)cc2c1c(=O)n(Cc1ncn(C)n1)c(=O)n2Cc1cc(F)c(F)c(F)c1 [Compound I-0125] | 0.032 µM | 
Cn1c(-c2cc(C#N)ccc2Cl)cc2c(c1=O)c(=O)n(-c1cncc(Cl)c1)c(=O)n2Cc1cc(F)c(F)c(F)c1 [Compound I-0435] | 0.001 µM | 
Cc1cncc(-n2c(=O)c3c(Cl)cc(-c4cc(CO)ccc4Cl)cc3n(Cc3cc(F)c(F)c(F)c3)c2=O)c1 [Compound I-0016] | < 0.1 µM | 
Cn1cnc(Cn2c(=O)c3ccc(N4C[C@H]5C[C@@H]4CN5)cc3n(Cc3cc(F)c(F)c(F)c3)c2=O)n1 [Compound I-0393] | < 0.1 µM | 
NC1CCN(c2ccc3c(=O)n(Cc4ccc[nH]c4=O)c(=O)n(Cc4cc(F)c(F)c(F)c4)c3c2)C1 (centres unmarked) [Compound I-0142] | 0.025 µM | 
CNC(=O)c1ccc(Cl)c(-c2cc(OC)c3c(=O)n(Cc4ncn(C)n4)c(=O)n(Cc4cc(F)c(F)c(F)c4)c3c2)c1 [Compound I-0213] | 0.033 µM | 
Cn1cnc(Cn2c(=O)c3c4occc4c(-c4cc(C#N)ccc4Cl)cc3n(Cc3cc(F)c(F)c(F)c3)c2=O)n1 [Compound I-0473] | 0.0041 µM | 
O=C1Cc2cc(-c3cc(F)c4c(=O)n(-c5cncc(Cl)c5)c(=O)n(Cc5cc(F)c(F)c(F)c5)c4c3)c(Cl)cc2N1 [Compound I-0071] | < 0.1 µM | 
COc1cc(-c2cc(C#N)ccc2Cl)cc2c1c(=O)n(Cc1ncn(C)n1)c(=O)n2Cc1cc(Cl)c(F)cc1F [Compound I-0279] | < 0.1 µM | 
Cn1cnc(Cn2c(=O)c3c(F)c(Cl)c(-c4cc(C#N)ccc4Cl)cc3n(Cc3cc(F)c(F)c(Cl)c3)c2=O)n1 [Compound I-0506] | < 0.1 µM | 
Cn1cnc(Cn2c(=O)c3c(F)c(Cl)c(-c4cc5c(cc4Cl)NC(=O)C5)cc3n(Cc3cc(F)c(F)c(Cl)c3)c2=O)n1 [Compound I-0492] | < 0.1 µM | 
Cn1cnc(Cn2c(=O)c3c(F)cc(-c4cc5c(cc4Cl)NC(=O)C5)cc3n(Cc3cc(F)c(F)c(Cl)c3)c2=O)n1 [Compound I-0267] | < 0.1 µM | 
COc1cc(-c2cc(C(=O)NCCN(C)C)ccc2Cl)cc2c1c(=O)n(Cc1ncn(C)n1)c(=O)n2Cc1cc(F)c(F)c(F)c1 [Compound I-0212] | < 0.1 µM | 

SMILES | IC50 [1] | IC50 [2]
COc1cc(-c2cc(C(C)(C)O)ccc2Cl)cc2c1c(=O)n(Cc1ncn(C)n1)c(=O)n2Cc1cc(F)c(F)c(F)c1 [Compound I-0276] | 0.024 µM | 
COc1cc(-c2cc(C(=O)NCCN3CCOCC3)ccc2Cl)cc2c1c(=O)n(Cc1ncn(C)n1)c(=O)n2Cc1cc(F)c(F)c(F)c1 [Compound I-0217] | < 0.1 µM | 
COc1cc(-c2cc(NS(C)(=O)=O)ccc2Cl)cc2c1c(=O)n(-c1cncc(C)c1)c(=O)n2Cc1cc(F)c(F)c(F)c1 [Compound I-0070] | 0.0098 µM | 
Cn1cnc(Cn2c(=O)c3c(F)cc(-c4nc5c(cc4Cl)NC(=O)C54CC4)cc3n(Cc3cc(F)c(F)c(F)c3)c2=O)n1 [Compound I-0008] | 0.021 µM | 
COc1nc(N2CC[C@@H](F)C2)cc2c1c(=O)n(Cc1ncn(C)n1)c(=O)n2Cc1cc(F)c(F)c(F)c1 [Compound I-0453] |  | 0.0025 µM
COc1cc(-c2cc(CN=S(C)(C)=O)ccc2Cl)cc2c1c(=O)n(Cc1ncn(C)n1)c(=O)n2Cc1cc(F)c(F)c(F)c1 [Compound I-0363] | 0.035 µM | 
Cn1cnc(Cn2c(=O)c3c(F)cc(-c4cc5cn[nH]c5cc4Cl)c(F)c3n(Cc3cc(F)c(F)c(F)c3)c2=O)n1 [Compound I-0006] | < 0.1 µM | 
Cn1cnc(Cn2c(=O)c3c(F)cc(-c4cc5c(cc4Cl)NC(=O)C5)c(F)c3n(Cc3cc(F)c(F)c(F)c3)c2=O)n1 [Compound I-0002] | 0.0062 µM | 
Cn1cnc(Cn2c(=O)c3cc(F)c(-c4cc5c(cc4Cl)NC(=O)C5)cc3n(Cc3cc(F)c(F)c(F)c3)c2=O)n1 [Compound I-0249] | 0.033 µM | 
COc1nc(-c2cc(C#N)ccc2Cl)cc2c1c(=O)n(Cc1ncn(C)n1)c(=O)n2Cc1cc(F)c(F)c(F)c1 [Compound I-0176] | 0.033 µM | 
Cn1cnc(Cn2c(=O)c3c4c(c(N5C[C@H]6C[C@@H]5CN6)cc3n(Cc3cc(F)c(F)c(F)c3)c2=O)CCO4)n1 [Compound I-0429] | < 0.1 µM | 
CCn1c(-c2cc(C#N)ccc2Cl)cc2c(c1=O)c(=O)n(-c1cncc(Cl)c1)c(=O)n2Cc1cc(F)c(F)c(F)c1 [Compound I-0437] | 0.0013 µM | 
COc1nc(N2C[C@H]3C[C@@H]2CN3)cc2c1c(=O)n(Cc1ncn(C)n1)c(=O)n2Cc1cc(F)c(F)c(F)c1 [Compound I-0389] | 0.0019 µM | 
Cn1cnc(Cn2c(=O)c3c(F)cc(-c4nc5c(cc4Cl)NC(=O)C5)cc3n(Cc3cc(F)c(F)c(F)c3)c2=O)n1 [Compound I-0009] | 0.021 µM | 
Cn1cnc(Cn2c(=O)c3c(Cl)cc(-c4cc5c(cc4Cl)NC(=O)C5)cc3n(Cc3cc(Cl)c(F)cn3)c2=O)n1 [Compound I-0117] | < 0.1 µM | 
COc1cc(-c2cc3c[nH]nc3cc2Cl)cc2c1c(=O)n(Cc1ncn(C)n1)c(=O)n2Cc1cc(F)c(F)c(F)c1 [Compound I-0115] | 0.0093 µM | 
COc1cc(-c2cc(CC(=O)NCCN(C)C)ccc2Cl)cc2c1c(=O)n(-c1cncc(Cl)c1)c(=O)n2Cc1cc(Cl)ccc1C [Compound I-0189] | 0.0071 µM | 
COc1cc(-c2cc3c(cc2Cl)NC(=O)C3)cc2c1c(=O)n(-c1cncc(C)c1)c(=O)n2Cc1cc(F)c(F)c(C#N)c1 [Compound I-0161] | 0.00075 µM | 
COc1nc(N2[C@@H]3CC[C@H]2CNC3)cc2c1c(=O)n(-c1cncc(Cl)c1)c(=O)n2Cc1cc(F)c(F)c(F)c1 [Compound I-0541] |  | 0.0034 µM
COc1cc(-c2c(Cl)ccc3ncccc23)cc2c1c(=O)n(Cc1ncn(C)n1)c(=O)n2Cc1cc(F)c(F)c(F)c1 [Compound I-0124] | < 0.1 µM | 

SMILES | IC50 [1] | IC50 [2]
COc1cc(-c2cc(N=S(C)(C)=O)ccc2Cl)cc2c1c(=O)n(-c1cncc(Cl)c1)c(=O)n2Cc1cc(F)c(F)c(F)c1 [Compound I-0210] | 0.028 µM | 
Cn1cnc(Cn2c(=O)c3c(Cl)cc(-c4cc5c(cc4Cl)NC(=O)C5)cc3n(Cc3cc(F)c(F)c(Cl)c3)c2=O)n1 [Compound I-0171] | 0.0032 µM | 
COc1nc(-c2cc(C#N)ccc2Cl)cc2c1c(=O)n(Cc1ncn(C)n1)c(=O)n2Cc1cc(F)c(F)c(Cl)c1 [Compound I-0174] | 0.016 µM | 
COc1cc(-c2cc(CC(N)=O)ccc2Cl)cc2c1c(=O)n(-c1cncc(Cl)c1)c(=O)n2Cc1cc(Cl)ccc1C [Compound I-0191] | < 0.1 µM | 
COc1cc(-c2cc3[nH]c(=O)[nH]c3cc2Cl)cc2c1c(=O)n(Cc1ncn(C)n1)c(=O)n2Cc1cc(F)c(F)c(F)c1 [Compound I-0265] | < 0.1 µM | 
CNC(=O)Cn1c(=O)c2c3c(c(-c4cc(C#N)ccc4Cl)cc2n(Cc2cc(F)c(F)c(F)c2)c1=O)CCO3 [Compound I-0443] | < 0.1 µM | 
CC1Cc2c(-c3cc(C#N)ccc3Cl)cc3c(c2O1)c(=O)n(Cc1ncn(C)n1)c(=O)n3Cc1cc(F)c(F)c(F)c1 (centres unmarked) [Compound I-0439] | 0.0047 µM | 
Cn1cnc(Cn2c(=O)c3c(=O)n(C)c(-c4cc(C#N)ccc4Cl)cc3n(Cc3cc(F)c(F)c(Cl)c3)c2=O)n1 [Compound I-0162] | 0.0008 µM | 
Cc1cc2c(=O)n(Cc3ncn(C)n3)c(=O)n(Cc3cc(F)c(F)c(F)c3)c2cc1-c1cc2c(cc1Cl)NC(=O)C2 [Compound I-0248] | 0.0073 µM | 
COc1cc(-c2c(Cl)ccc3c(=O)n(C)ccc23)cc2c1c(=O)n(Cc1ncn(C)n1)c(=O)n2Cc1cc(F)c(F)c(F)c1 [Compound I-0268] | 0.0075 µM | 
Cn1cnc(Cn2c(=O)c3c(F)cc(-c4cc(-c5nnc(N)o5)ccc4Cl)cc3n(Cc3cc(F)c(F)c(F)c3)c2=O)n1 [Compound I-0080] | 0.034 µM | 
Cn1cnc(Cn2c(=O)c3c(=O)[nH]c(-c4cc(C#N)ccc4Cl)cc3n(Cc3cc(F)c(F)c(Cl)c3)c2=O)n1 [Compound I-0172] | < 0.1 µM | 
COc1cc(-c2cc(C#N)ccc2Cl)cc2c1c(=O)n(-c1cncc(C)c1)c(=O)n2Cc1cc(F)c(F)c(C#N)c1 [Compound I-0165] | 0.0012 µM | 
COc1cc(-c2cc(CC(=O)NC3CCN(C)CC3)ccc2Cl)cc2c1c(=O)n(-c1cncc(Cl)c1)c(=O)n2Cc1ccc(F)c(C#N)c1 [Compound I-0201] | < 0.1 µM | 
CC1COc2c1c(N1CC[C@@H](O)C1)cc1c2c(=O)n(Cc2ncn(C)n2)c(=O)n1Cc1cc(F)c(F)c(F)c1 (some centres unmarked) [Compound I-0440] | 0.01 µM | 
COc1cc(-c2cc3cn[nH]c3cc2Cl)cc2c1c(=O)n(Cc1ncn(C)n1)c(=O)n2Cc1cc(Cl)c(F)cc1F [Compound I-0272] | < 0.1 µM | 
Cc1cncc(-n2c(=O)c3c(Cl)cc(-c4cc(CO)ccc4Cl)cc3n(Cc3ccc(F)c(C#N)c3)c2=O)c1 [Compound I-0014] | 0.03 µM | 
COc1cc(-c2nc3c(cc2Cl)NC(=O)C3)cc2c1c(=O)n(Cc1ncn(C)n1)c(=O)n2Cc1cc(F)c(F)c(F)c1 [Compound I-0005] | 0.01 µM | 
Cn1cnc(Cn2c(=O)c3nnc(N4CC[C@@H](F)C4)cc3n(Cc3cc(F)c(F)c(F)c3)c2=O)n1 [Compound I-0935] | 1 to 10 µM | 

— patent publication US20240400560A1, “BICYCLIC HETEROCYCLIC DERIVATIVE HAVING VIRAL GROWTH INHIBITORY ACTIVITY AND PHARMACEUTICAL COMPOSITION CONTAINING SAME” (Shionogi & Co., Ltd., priority 2021, published 2024)
